Test results taken from patent publication US6579469B1, “Cyanoacrylate solutions containing preservatives” (priority 1999, dated 2003).

Experiment: Compatibility of antimicrobial agent with sterilization procedures
Assay type: physicochemical
Conditions: comparison of Tables II and III
Source text: Optionally, in embodiments of the present invention, the potential agent can be tested for its compatibility with one or more sterilization procedures. This optional screening procedure can also be performed by mixing an appropriate amount of the agent with a desired amount of the monomer composition and any other desired additives, and then subjecting the resultant composition to one or more sterilization procedures. Compatibility of the agent with one or more sterilization procedures is preferred in embodiments of the present invention because many uses of the polymerizable monomer compositions, such as many medical applications, require or prefer sterilized products. Following sterilization, the agent can exert antimicrobial action in killing or preventing growth of microbes that may be introduced into the pre-sterilized monomer compositions.

## Cc1ccc(C(C)C)c(O)c1 [thymol]
  Compatibility with forms of sterilization: more compatible with one form of sterilization than it is with another form of sterilization
